Reference: ChEMBL document CHEMBL6127139, “Lysine-Targeted Covalent Inhibitors of PI3Kδ Synthesis and Screening by In Situ Interaction Upgradation” (J Med Chem, 2024)
Calls of active or inactive are those of the source. The rule behind the calls is not given here.

Columns and labels:
[1] = target: T1, Phosphatidylinositol 4,5-bisphosphate 3-kinase catalytic subunit delta isoform (Homo sapiens) (UniProt O00329); experiment: Induction of thermal stabilization of PI3Kdelta in human SU-DHL-6 cells at 1 uM preincubated for 30 mins followed by incubated under 40 to 75 degreeC for 3 mins by CETSA; type: cell-based; settings: time 33.0 min
T1 sequence (whole entry): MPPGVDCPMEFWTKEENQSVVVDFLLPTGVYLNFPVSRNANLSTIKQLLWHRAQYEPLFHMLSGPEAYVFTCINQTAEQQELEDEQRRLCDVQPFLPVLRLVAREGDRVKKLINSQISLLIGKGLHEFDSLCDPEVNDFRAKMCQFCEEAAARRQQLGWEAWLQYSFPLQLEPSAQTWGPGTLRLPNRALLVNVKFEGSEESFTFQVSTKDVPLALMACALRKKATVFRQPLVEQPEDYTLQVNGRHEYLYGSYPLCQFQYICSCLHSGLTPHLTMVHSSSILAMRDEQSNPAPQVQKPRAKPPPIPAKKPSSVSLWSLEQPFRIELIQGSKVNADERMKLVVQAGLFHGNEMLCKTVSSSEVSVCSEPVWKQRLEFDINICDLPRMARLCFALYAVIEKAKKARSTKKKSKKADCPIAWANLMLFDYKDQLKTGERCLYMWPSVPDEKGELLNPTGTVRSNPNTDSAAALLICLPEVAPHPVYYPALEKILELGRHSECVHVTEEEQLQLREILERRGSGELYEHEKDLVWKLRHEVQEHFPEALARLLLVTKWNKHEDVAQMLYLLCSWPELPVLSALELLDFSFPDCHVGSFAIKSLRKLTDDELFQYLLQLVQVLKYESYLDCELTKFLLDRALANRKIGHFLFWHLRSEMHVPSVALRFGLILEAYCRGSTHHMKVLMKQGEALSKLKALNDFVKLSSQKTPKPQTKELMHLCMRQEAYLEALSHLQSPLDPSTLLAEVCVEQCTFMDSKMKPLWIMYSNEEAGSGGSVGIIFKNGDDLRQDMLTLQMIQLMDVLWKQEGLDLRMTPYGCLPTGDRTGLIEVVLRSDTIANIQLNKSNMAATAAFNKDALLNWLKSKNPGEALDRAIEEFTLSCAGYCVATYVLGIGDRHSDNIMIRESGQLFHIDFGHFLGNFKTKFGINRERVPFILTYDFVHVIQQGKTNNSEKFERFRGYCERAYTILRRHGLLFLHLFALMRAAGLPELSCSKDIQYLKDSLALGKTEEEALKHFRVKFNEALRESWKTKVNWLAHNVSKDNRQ

[2] = Chemical reactivity of the compound with N-Boc-Lysine assessed as half-life at 1 uM by HPLC analysis; type: physicochemical; settings: incubation with N-Boc-Lysine
[3] = Stability of compound in water/acetonitrile solution incubated for 24 hrs by HPLC analysis; type: physicochemical; settings: buffer
[4] = target: T1, Phosphatidylinositol 4,5-bisphosphate 3-kinase catalytic subunit delta isoform (Homo sapiens); experiment: Covalent inhibition of PI3Kdelta (unknown origin) using PIP2:3PS as substrate assessed as rate constant for irreversible inactivation (Kinact) incubated upto 180 mins in presence of ATP by ADP-Glo reagent based assay

For `COc1ncc(-c2ccc3ncnc(N[C@H]4CCN(C(=O)C5CCOCC5)C4)c3n2)cc1C(=O)Oc1ccccc1`, the Activity [1] was “Active”, the half-life at 1 µM [2] was 2.82 h and the Stability [3] was “Stable”. It also gave a Kinact [4] of 0.02 min⁻¹.
